Source: patent US11642337B2, “Therapeutic agent for mental retardation or autism” (TOKYO METROPOLITAN INSTITUTE OF MEDICAL SCIENCE, priority 2017, dated 2023)

How the values were obtained:
Format in all cases: in vivo, mouse
[1] = tested on: mice to which kainic acid was administered during the neonatal period; assay: Three-chamber test in mice given kainic acid in the neonatal period (autism-like abnormality of social behavior); conditions: mice given kainic acid 1.5 mg/kg one week after birth, tested two months later; single administration 40 mg/kg, i.p.
Tsc2^+/− mice = assay: Contextual fear discrimination test in Tsc2+/- mice (memory impairment of tuberous sclerosis); conditions: 40 mg/kg orally, single administration six hours before FS, measured on the next day in the same box, vs vehicle group
Protocol: Tsc2^+/− mice were prepared by breeding/crossing according to a known method (Kobayashi, T., et al., Renal carcinogenesis, hepatic hemangiomatosis, and embryonic lethality caused by a germ-line Tsc2 mutation in mice. Cancer Res, 1999. 59(6): p. 1206-11).
A contextual fear discrimination test (Auerbach, B. D., E. K. Osterweil, and M. F. Bear, Mutations causing syndromic autism define an axis of synaptic pathophysiology. Nature, 2011. 480(7375): p. 63-8.) was carried out to measure the contextual fear memory of mice. More specifically, each mouse was placed in a cage for application of foot shock (FS), and FS was applied to the mouse. On the next day, the mouse was returned to the same cage (familiar condition), and the freeze time was measured (FIG. 1a). In order to investigate the effect of tipifarnib or lonafarnib (which may be hereinafter simply referred to as “active component”), a vehicle (carboxymethyl cellulose) and the active component were orally administered to mice, and FS was applied to each mouse 6 hours later. On the next day, the mouse was returned to the same cage to compare the freeze time. […]
Six hours before FS, lonafarnib (40 mg/kg) or tipifarnib (40 mg/kg) was orally administered to the Tsc2^+/− mice, and contextual fear memory was investigated (FIG. 1a). On the next day, the mice were returned to the box in which the FS was applied, and the freeze time was measured.

[2] = tested on: mice to which pentylenetetrazol was administered; assay: Contextual fear discrimination test in pentylenetetrazol-treated mice (epilepsy-induced memory impairment); conditions: mice given pentylenetetrazol 10 times; single administration 40 mg/kg, i.p.
[3] = tested on: GFAP-Cre; Tsc1^fl/fl (GFAP-Tsc1 cKO) mice; assay: Three-chamber test in GFAP-Tsc1 cKO mice (abnormality of social behavior); conditions: single oral administration (40 mg/kg)
Protocol: By a three-chamber test, social interaction was investigated. This was carried out using an experiment device having three separated chambers between which a mouse can move freely. First, a cage containing a mouse (stranger 1 mouse) was placed in one chamber, and an empty cage was placed in another chamber (FIG. 2a). The subject mouse was placed in the middle chamber, and the length of time when the mouse stayed in each chamber (the chamber staying time in the figure, expressed in (s): seconds) was measured. Subsequently, the mouse (stranger 1 mouse) in the first cage was transferred to the empty cage, and another mouse (stranger 2 mouse) was placed in the cage that became empty (FIG. 2a). Thereafter, the length of time when the subject mouse stayed in the chamber of the first mouse (stranger 1 chamber) and the length of time when the subject mouse stayed in the chamber where the new mouse was staying (stranger 2 chamber) were measured and compared.
These mice were obtained by crossing of GFAP-Cre mice, which show astrocyte-specific Cre expression.
A suspension of 4 mg/ml lonafarnib or tipifarnib (using 1 w/v % CMC, 0.9 w/v % NaCl, and 5 v/v % DMSO as a vehicle) was prepared and orally administered at 40 mg/kg. A solution of 2 mg/ml pentylenetetrazol (PTZ) (using 0.9 w/v % NaCl as a vehicle) was prepared and intraperitoneally administered. […]

NC(=O)N1CCC(CC(=O)N2CCC([C@H]3c4ncc(Br)cc4CCc4cc(Cl)cc(Br)c43)CC2)CC1 [lonafarnib]
staying time in the chamber of the stranger 2 (time spent in chamber) [1]: significantly longer
freeze time (contextual fear memory) (Tsc2^+/− mice): increases in the freeze behavior
contextual fear memory (freeze time), pentylenetetrazol-induced memory impairment [2]: pentylenetetrazol-induced memory impairment could also be improved
staying time in the chamber of the stranger 2 [3]: significantly longer

Cn1cncc1[C@@](N)(c1ccc(Cl)cc1)c1ccc2c(c1)c(-c1cccc(Cl)c1)cc(=O)n2C [tipifarnib, 6-[(R)-amino(4-chlorophenyl)(1-methyl-1H-imidazol-5-yl)methyl]-4-(3-chlorophenyl)-1-methyl-2(1H)-quinolinone]
freeze time (contextual fear memory) (Tsc2^+/− mice): increases in the freeze behavior
